Non-standard residues stand in square brackets, D forms with d. No end group written: not given here.

Results on four substances are retold here after patent US20160151444A1, “METHODS FOR THE PREVENTION OR TREATMENT OF VESSEL OCCLUSION INJURY” (Stealth Peptides International, Inc., priority 2009, published 2016).

Data set [1] concerns several mammalian cell types. As to conditions: energy-independent manner; Zhao et al. 2003; cited from earlier work.
Data set [2] relates to subjects with STEMI and hypertension. Description: EMBRACE STEMI trial, subjects with anterior STEMI undergoing PCI; hypertensive subgroup compared. It is filed as in vivo, human. Here is the method: The EMBRACE STEMI study is known in the art (see e.g., Chakrabarti et al., Am Heart J, 165(4):509-514 (2013), the content of which is incorporate by reference in its entirety). Briefly, the EMBRACE STEMI trial is a multicenter, randomized, double-blind, placebo-controlled study. The study design was approved by institutional and national regulatory bodies and ethical committees. Multiple safety reviews were performed by an independent Data and Safety Monitoring Board throughout the course of the trial. All subjects provided written informed consent prior to randomization.
Subjects aged 18 to 85 years with anterior STEMI undergoing first-time percutaneous coronary intervention (PCI) plus stenting with an anticipated time from ischemic symptoms to time of balloon inflation <4 hours, with >0.1 mV ST-segment elevation in at least 2 contiguous precordial leads were enrolled. Major exclusion criteria included a history of prior myocardial infarction (MI), previous heart failure (e.g., known left ventricle ejection fraction (LVEF)<30% prior to the qualifying infarct), and cardiogenic shock.
To assess efficacy in large MIs that had not sustained reperfusion injury, only subjects who met angiographic and post-PCI inclusion criteria were included in the primary analysis population (PAP) (FIG. 7): (1) the presence of a proximal/mid left anterior descending (LAD) occlusion with pre-PCI TIMI flow 0 or 1 and no visible evidence of significant coronary collateral flow; (2) dilation of only the LAD; (3) successful PCI of the LAD with post-PCI TIMI flow >2; and (4) no evidence of a second MI within 72 hours of the initial PCI which would confound the infarct size determination.
Subjects were randomized in a double blind 1:1 fashion to receive either D-Arg-2′,6′-Dmt-Lys-Phe-NH2 of at 0.05 mg/kg/hr or a control placebo by IV injection (Treatment group: n=58; Control group: n=60). D-Arg-2′,6′-Dmt-Lys-Phe-NH2 was administered >15 minutes, but <60 minutes prior to PCI and for 1 hour following reperfusion. Subjects underwent cardiac magnetic resonance imaging (MRI) at 4±1 days and again at 30±7 days post-PCI. Follow-up visits were conducted at discharge, at 30±7 days, 90±14 days, and 6±1.5 months post-PCI.
The primary end point of the study was infarct size, or the area under the curve (AUC) of creatine kinase-MB (CK-MB) enzyme over 72 hours following PCI with the values log transformed and adjusted for the percent of artery distal to the occlusion and duration of symptoms (two variables known to confound the estimation of infarct size).19-21 Secondary end points included the AUCO-72 of troponin I, peak cardiac enzymes, the ratio of the volume of infarcted myocardium (late contrast gadolinium enhancement) to the left ventricular (LV) mass on cardiac Mill at day 4±1, day 30±7, and the change (4) in ratios from day 4±1 to day 30±7, measures of myocardial structure and function (left ventricular ejection fraction (LVEF), left ventricular end systolic volume (LVESV), and left ventricular end diastolic volume (LVEDV)) at day 4±1, day 30±7, and the change (4) in these measures from day 4±1 to day 30±7, TIMI myocardial perfusion grade (TMPG), TIMI flow grade (TFG), corrected TIMI frame count post-PCI and complete ST-segment elevation resolution (>70%) by the Schroder criteria. Laboratory measures of congestive heart failure (CHF) (N-terminal pro-B type natriuretic […]), and renal function (serum creatinine, estimated glomerular filtration rate, cystatin C, and blood urea nitrogen) were also evaluated.
The incidence of the clinical composite endpoint of all-cause death, new-onset CHF beginning >24 hours post-PCI and within the duration of the index hospitalization, and CHF re-hospitalization was also determined through 30±7 days and 6±1.5 months post-PCI. Safety endpoints included treatment emergent adverse events (TEAE). The pharmacokinetic profile of D-Arg-2′6′-Dmt-Lys-Phe-NH2 was determined based on the drug serum concentration. […]

Data set [3] concerns New Zealand white rabbits. Description: Rabbit model of acute myocardial ischemia and reperfusion (coronary occlusion), infarct size by histomorphometry. It is filed as in vivo. The procedure:
New Zealand white rabbits were used in this study. The rabbits were males and >10 weeks in age. Environmental controls in the animal rooms were set to maintain temperatures of 61° to 72° F. and relative humidity between 30% and 70%. Room temperature and humidity were recorded hourly, and monitored daily. There were approximately 10-15 air exchanges per hour in the animal rooms. Photoperiod was 12-hr light/12-hr dark (via fluorescent lighting) with exceptions as necessary to accommodate dosing and data collection. Routine daily observations were performed. Harlan Teklad, Certified Diet (2030C), rabbit diet was provided approximately 180 grams per day from arrival to the facility. In addition, fresh fruits and vegetables were given to the rabbit 3 times a week.
The peptide D-Arg-2′6′-Dmt-Lys-Phe-NH2 (sterile lyophilized powder) was used as the test article. Dosing solutions were formulated at no more than 1 mg/ml, and were delivered via continuous infusion (IV) at a constant rate (e.g., 50 μL/kg/min). Normal saline (0.9% NaCl) was used as a control.
The test/vehicle articles were given intravenously, under general anesthesia, in order to mimic the expected route of administration in the clinical setting of AMI and PTCA. Intravenous infusion was administered via a peripheral vein using a Kd Scientific infusion pump (Holliston, Mass. 01746) at a constant volume (e.g., 50 μL/kg/min).
The study followed a predetermined placebo and sham controlled design. In short, 10-20 healthy, acclimatized, male rabbits were assigned to one of three study arms (approximately 2-10 animals per group). Arm A (n=10, CTRL/PLAC) includes animals treated with vehicle (vehicle; VEH, IV); Arm B (n=10, treated) includes animals treated with peptide; Arm C (n=2, SHAM) includes sham-operated time-controls treated with vehicle (vehicle; VEH, IV) or peptide.
In all cases, treatments were started approximately 10 min after the onset of a 30 min ischemic insult (coronary occlusion) and continued for up to 3 h following reperfusion. In all cases, cardiovascular function was monitored both prior to and during ischemia, as well as for up to 180 min (3 h) post-reperfusion. The experiments were terminated 3 h post-reperfusion (end of study); irreversible myocardial injury (infarct size by histomorphometery) at this time-point was evaluated, and was the primary-end-point of the study.
General anesthesia was induced intramuscularly (IM) with a ketamine (˜35-50 mg/kg)/xylazine (˜5-10 mg/kg) mixture. A venous catheter was placed in a peripheral vein (e.g., ear) for the administration of anesthetics. In order to preserve autonomic function, anesthesia was maintained with continuous infusions of propofol (˜8-30 mg/kg/hour) and ketamine (˜1.2-2.4 mg/kg/hr). A cuffed tracheal tube was placed via a tracheotomy (ventral midline incision) and used to mechanically ventilate the lungs with a 95% O2/5% CO2 mixture via a volume-cycled animal ventilator (˜40 breaths/minute with a tidal volume of −12.5 ml/kg) in order to sustain PaCO2 values broadly within the physiological range.
Once a surgical plane of anesthesia was reached, either transthoracic or needle electrodes forming two standard ECG leads (e.g., lead II, aVF, V2) were placed. A cervical cut-down exposed a carotid artery, which was isolated, dissected free from the surrounding tissue and cannulated with a dual-sensor high-fidelity micromanometer catheter (Millar Instruments); the tip of this catheter was advanced into the left-ventricle (LV) retrogradely across the aortic valve, in order to simultaneously determine aortic (root, proximal transducer) and left-ventricular (distal transducer) pressures. The carotid cut-down also exposed the jugular vein, which was cannulated with a hollow injection catheter (for blood sampling). Finally, an additional venous catheter was placed in a peripheral vein (e.g., ear) for the administration of vehicle/test articles. […]

The test system of another data set is mu-opioid receptor. The following applies: stated in the description, no data shown; cited from earlier work.
The mark [4] stands for this setting: 30 min ischemia, 180 min reperfusion, IV continuous infusion from 10 min of ischemia, n = 10, means with standard errors.
Where [5] appears, read: peptide group versus placebo group, p < 0.05.

Regarding 2′,6′-Dmt-D-Arg-Phe-Lys-NH2, in data set [1], the “Penetration of the plasma membrane” value is “readily penetrates the plasma membrane”.
“D-Arg-2′,6′-Dmt-Lys-Phe-NH2 [D-Arg-2′6′-Dmt-Lys-Phe-NH2]”: the “Proportion of complete or partial ST segment resolution” value in data set [2] (24 hours post-PCI, hypertensive subjects, control 88.2%, p=0.05) was determined as 100%. In addition, the “Mean infarct volume on cardiac MRI” value in data set [2] (day 4±1, 0.05 mg/kg/hr IV, control 52.6±30.2, p=0.03) came to 35.8 ± 22.8 mL. Moreover, the “Mean left ventricle (LV) mass” value in data set [2] (hypertensive subjects, 0.05 mg/kg/hr IV, control 162.2±52.4, p=0.08) is listed as 141.5±53.2 grams. Moreover, the “New onset CHF during the first 8 hours post-PCI” value in data set [2] (hypertensive subjects, control 11 incidents) is 5 incidents. The “New onset CHF <24 hours post-PCI” value in data set [2] (hypertensive subjects, control 15 incidents) was found to be 8 incidents. Further, the “Myocardial edema on cardiac MRI” value in data set [2] (hypertensive subjects, control 60.9±20.5, p=0.053) turned out to be 48.9±22.0. In data set [3] (setting [4]), the “Myocardial Area (%) IA/AR (infarcted area to area of risk)” value is on record as 24.7 ± 4.7% and the “Myocardial Area (%) IA/LV (infarcted area to left ventricular area)” value was 16.2 ± 3.4%. The “Infarct size compared to the control” value in data set [3] (induced cardiac ischemia, FIGS. 4A-4E) is reported as “decreased infarct size”. In data set [3] (setting [5]), the “IA/AR, % versus placebo” value was −32 ± 13% and the “IA/LV, % versus placebo” value was −24 ± 16%. The “Myocardial salvage with shorter treatment” value in data set [3] (treatment for less than 3 hours after reperfusion, i.e., 30 min, data not shown) was “comparable myocardial salvage”. Besides, in the data set on mu-opioid receptor, the “Mu-opioid receptor agonist activity” value is “does not have mu-opioid receptor agonist activity”.
On to F[dR]FK-NH2, for which, in the data set with mu-opioid receptor, the “Mu-opioid receptor agonist activity” value is listed as “does not have mu-opioid receptor agonist activity”.
With Tyr-D-Arg-Phe-Lys-NH2, in the data set with mu-opioid receptor, the “Mu-opioid receptor agonist activity” value was “has mu-opioid receptor agonist activity”.
